Source: US10189826B2, “Heterocyclic compounds and methods of use” (Medivation Technologies LLC, priority 2015, dated 2019)
Like-named read-outs stand apart in the source and are kept apart here.

How the values were obtained:
[1] = Cytotoxicity assay (LDH release) in HepG2_LSSprom cells; assay type: cell-based; settings: human, HepG2 LSSprom cells, 24 h treatment, LDH release
Procedure: (§1) HepG2_LSSprom cells (SwitchGear Genomics, cat# C711010L) were cultured in DMEM with 10% of fetal bovine serum (FBS), supplemented with Puromycin (1 μg/mL), 1% Penicillin/Streptomycin (Pen-Strep), 37° C., humidified, 95% air and 5% CO2. Culture media was refreshed every 2 or 3 days. Cells were used between passage number 6-12.
For cytotoxicity assays, cells were plated out at 20,000 cells/well in transparent 96 well plates in DMEM plus 10% FBS and 1% Pen-Strep without puromycin. After 1 day, cells were treated with Compound by diluting in culture medium without FBS to a final concentration of 0.625, 1.25, 2.5, 3.75, 5 and 10 μM. Compound was prepared by dilutions of 10 mM stock aliquots. As a negative control culture medium was used without FBS plus DMSO. As maximum LDH release control (Lysis control) a lysis buffer provided by the kit manufacturer was used. Treatments with Compound were maintained for 6 h, or 24 h, in cell culture medium without serum until the cytotoxicity assay was started.
The cytotoxicity assay was performed according to the manufacturer's instructions. As maximum LDH release control (Lysis control) 3 wells per plate were treated with 10 μL of lysis buffer 45 min before the treatment was over. Briefly, after the 6 h, or 24 h, of treatment, 50 μL of media from each well was transferred to a new 96-well plate. To the transferred media, 50 μL of reconstituted substrate mix was added. The plates were covered from light and incubated at RT for 10 min. Then, 50 μL of stop solution was added to each well. The plates were then read using a Synergy 4 (Biotek) equipment recording the absorbance at 490 nm.
(§2) Five independent experiments were carried out for both luciferase and cytotoxicity assay. In each experiment, three wells were use per condition and the results are represented as means±SEM.
For cytotoxicity assay, Lysis control was taken as 100%/o of LDH release. The vehicle values were taken as basal LDH release and were subtracted to all the treatments (including vehicle itself) having this value as 0% of LDH release. The LDH release for the treatments was calculated respect to the 100% of LDH release of Lysis control normalized against vehicle. All the negatives values were taken as 0% of cytotoxicity. The graphics were made using the Graph Prism ver. 6.05 software.

[2] = test system: SREBP-2 transcriptional activity (SREBP2 cleavage) in HepG2_LSSprom cells; assay: Luciferase reporter driven by a SREBP-2 specific promoter in HepG2_LSSprom cells; assay type: cell-based; settings: 24 h, read-out: SREBP2 Cleavage (IC50 μM) 24 h
Procedure: Dose response effects were measured of Compounds on the transcriptional activity of a Luciferase reporter driven by a SREBP-2 specific promoter in HepG2_LSSprom cells.
as §1
For luminescence assays, cells were plated out at 20,000 cells/well in white 96 well plates in DMEM plus 10% FBS and 1% Pen-Strep without puromycin. After 1 day, cells were treated with Compound by diluting the drug in culture medium without FBS to a final concentration of 0.625, 1.25, 2.5, 3.75, 5 and 10 μM. Drug was prepared by dilutions of 10 mM stock aliquots. As control was used culture medium without FBS plus DMSO. Treatments with Compound were maintained for 6 h, or 24 h, until the luciferase assay was carried out.
After 6 h of treatments with Compound, the luciferase assay was performed. Briefly, the assay solution (buffer+substrate) was prepare just prior to use. To each well 100 μL of assay solution was added. The 96-well plate was then gently mix for 2 min and incubated for 30 min at RT protected from light. The luminescence was read using a Synergy 4 (Biotek) equipment recording luminescence with sensibility set up at 150.
as §2
For luciferase assay, Vehicle (no treatment) was taken as 100% of luciferase activity. This value represents the SREBP-2 transcriptional activity for the vehicle condition and was taken as 100% of SREBP-2 cleaved. The percentage for each treatment was calculated normalizing against the vehicle control. The graphics were made using the GraphPad Prism ver. 6.05 software. Half of maximal inhibitory concentration (IC50) of the effect of Compound on SREBP was obtain by nonlinear fit regression of mean normalized values vs. Compound concentration using the log(inhibitor) vs. response−Variable slope (four parameters) tool.

[3] = 24 h treatment, HepG2_LSSprom cells

SMILES	IC50 at 24 h [1]	IC50 [2, 3]	IC50 [2]
CC(C)(C)c1cc(-c2cc(-c3ccc(C(=O)N4CCC[C@H](O)C4)cc3Cl)cs2)ccn1 [Compound 48b, (S)-(4-(5-(2-(tert-butyl)pyridin-4-yl)thiophen-3-yl)-3-chlorophenyl)(3-hydroxypiperidin-1-yl)methanone]	> 10 µM	0.12 µM	–
CC(C)(C)c1cc(-c2cc(-c3ccc(C(=O)Nc4cccc(O)c4)cc3Cl)cs2)ccn1 [Compound 49, 4-[5-(2-tert-butylpyridin-4-yl)thiophen-3-yl]-3-chloro-N-(3-hydroxyphenyl) benzamide]	> 10 µM	> 1 µM	–
C[C@@H]1CN(C(=O)c2ccc(-c3csc(-c4ccnc(C(C)(C)C)c4)c3)c(Cl)c2)C[C@H](C)O1 [Compound 50, (2R,6S)-4-{4-[5-(2-tert-butylpyridin-4-yl)thiophen-3-yl]-3-chlorobenzoyl}-2,6-dimethylmorpholine]	> 10 µM	1.3 µM	–
CC(C)N1CCc2cc(-c3csc(-c4ccnc(C(C)(C)C)c4)c3)c(Cl)cc2C1=O [Compound 52, 6-[5-(2-tert-butylpyridin-4-yl)thiophen-3-yl]-7-chloro-2-(propan-2-yl)-1,2,3,4-tetrahydroisoquinolin-1-one]	> 10 µM	1.7 µM	–
Cc1cc(C)c(CNC(=O)c2ccc(-c3csc(-c4ccnc(C(C)(C)C)c4)c3)c(Cl)c2)c(=O)[nH]1 [Compound 53, 4-[5-(2-tert-butylpyridin-4-yl)thiophen-3-yl]-3-chloro-N-[(4,6-dimethyl-2-oxo-1,2-dihydropyridin-3-yl)methyl]benzamide]	> 10 µM	3.9 µM	–
CC(C)(C)c1cc(-c2cc(-c3ccc(C(=O)Nc4ccc(F)cc4)cc3Cl)cs2)ccn1 [Compound 54, 4-[5-(2-tert-butylpyridin-4-yl)thiophen-3-yl]-3-chloro-N-(4-fluorophenyl) benzamide]	> 10 µM	0.54 µM	–
CC(C)(C)C(=O)NC1CCCN(C(=O)c2ccc(-c3csc(-c4ccnc(C(C)(C)C)c4)c3)c(Cl)c2)C1 (stereo not shown) [Compound 55, N-(1-{4-[5-(2-tert-butylpyridin-4-yl)thiophen-3-yl]-3-chlorobenzoyl}piperidin-3-yl)-2,2-dimethylpropanamide]	> 10 µM	0.36 µM	–
CC(C)(C)c1cc(-c2cc(-c3ccc(C(=O)N4CCCC(NC(=O)NC5CC5)C4)cc3Cl)cs2)ccn1 (stereo not shown) [Compound 56, 1-(1-{4-[5-(2-tert-butylpyridin-4-yl)thiophen-3-yl]-3-chlorobenzoyl}piperidin-3-yl)-3-cyclopropylurea]	> 10 µM	1 µM	–
CC(C)(C)c1cc(-c2cc(-c3ccc(C(=O)N4CCC(O)CC4)cc3Cl)cs2)ccn1 [Compound 57, 1-{4-[5-(2-tert-butylpyridin-4-yl)thiophen-3-yl]-3-chlorobenzoyl}piperidin-4-ol]	> 10 µM	0.55 µM	–
CC(C)(C)c1cc(-c2cc(-c3ccc(C(=O)Nc4cccnc4)cc3Cl)cs2)ccn1 [Compound 58, 4-[5-(2-tert-butylpyridin-4-yl)thiophen-3-yl]-3-chloro-N-(pyridin-3-yl)benzamide]	> 10 µM	1.4 µM	–
CC(C)(C)c1cc(-c2cc(-c3ccc(C(=O)N4CCC(NS(C)(=O)=O)CC4)cc3Cl)cs2)ccn1 [Compound 59, N-(1-{4-[5-(2-tert-butylpyridin-4-yl)thiophen-3-yl]-3-chlorobenzoyl}piperidin-4-yl)methanesulfonamide]	> 10 µM	1.6 µM	–
CN(C(=O)c1ccc(-c2csc(-c3ccnc(C(C)(C)C)c3)c2)c(Cl)c1)c1ncco1 [Compound 60, 4-[5-(2-tert-butylpyridin-4-yl)thiophen-3-yl]-3-chloro-N-methyl-N-(1,3-oxazol-2-yl)benzamide]	> 10 µM	3.5 µM	–
CC(C)(C)c1cc(-c2cc(-c3ccc(C(=O)NCC(=O)N4CCOCC4)cc3Cl)cs2)ccn1 [Compound 61, 4-[5-(2-tert-butylpyridin-4-yl)thiophen-3-yl]-3-chloro-N-[2-(morpholin-4-yl)-2-oxoethyl]benzamide]	> 10 µM	1.5 µM	–
CN1C2CCC1CC(NC(=O)c1ccc(-c3csc(-c4ccnc(C(C)(C)C)c4)c3)c(Cl)c1)C2 (stereo not shown) [Compound 62]	> 10 µM	–	> 3 µM
CCOC(=O)NC1CCN(C(=O)c2ccc(-c3csc(-c4ccnc(C(C)(C)C)c4)c3)c(Cl)c2)CC1 [Compound 63, ethyl N-(1-{4-[5-(2-tert-butylpyridin-4-yl)thiophen-3-yl]-3-chlorobenzoyl}piperidin-4-yl)carbamate]	> 10 µM	2.1 µM	–
CC(C)(C)OC(=O)NC1CCCN(C(=O)c2ccc(-c3csc(-c4ccnc(N5CCOCC5)c4)c3)c(Cl)c2)C1 (stereo not shown) [Compound 64, tert-butyl N-[1-(3-chloro-4-{5-[2-(morpholin-4-yl)pyridin-4-yl]thiophen-3-yl}benzoyl)piperidin-3-yl]carbamate]	> 10 µM	0.4 µM	–
NC1CCCN(C(=O)c2ccc(-c3csc(-c4ccnc(N5CCOCC5)c4)c3)c(Cl)c2)C1 (stereo not shown) [Compound 65, 1-(3-chloro-4-(5-[2-(morpholin-4-yl)pyridin-4-yl]thiophen-3-yl)benzoyl)piperidin-3-amine]	> 10 µM	2.4 µM	–
Cc1sc(-c2ccnc(C(C)(C)C)c2)cc1-c1ccc(C(=O)N2CCCC(N)C2)cc1Cl (stereo not shown) [Compound 66, 1-{4-[5-(2-tert-butylpyridin-4-yl)-2-methylthiophen-3-yl]-3-chlorobenzoyl}piperidin-3-amine]	> 10 µM	> 10 µM	–
Cc1sc(-c2ccnc(C(C)(C)C)c2)cc1-c1ccc(C(=O)Nc2ccccc2)cc1Cl [Compound 67, 4-[5-(2-tert-butylpyridin-4-yl)-2-methylthiophen-3-yl]-3-chloro-N-phenyl benzamide]	> 10 µM	–	4.7 µM
CC(C)(C)c1cc(-c2csc(-c3ccc(C(=O)N4CC[C@H](O)C4)cc3Cl)c2)ccn1 [Compound 68a, (3S)-1-{4-[4-(2-tert-butylpyridin-4-yl)thiophen-2-yl]-3-chlorobenzoyl}pyrrolidin-3-ol]	> 10 µM	0.15 µM	–
CC(C)(C)c1cc(-c2csc(-c3ccc(C(=O)N4CC[C@@H](O)C4)cc3Cl)c2)ccn1 [Compound 68b, (3R)-1-{4-[4-(2-tert-butylpyridin-4-yl)thiophen-2-yl]-3-chlorobenzoyl}pyrrolidin-3-ol]	> 10 µM	0.06 µM	–
CC(C)(C)OC(=O)N[C@@H]1CCCN(C(=O)c2ccc(-c3cc(-c4ccnc(C(C)(C)C)c4)cs3)c(Cl)c2)C1 [Compound 69, tert-butyl N-[(3R)-1-{4-[4-(2-tert-butylpyridin-4-yl)thiophen-2-yl]-3-chlorobenzoyl}piperidin-3-yl]carbamate]	> 10 µM	0.015 µM	–
CN(C(=O)OC(C)(C)C)C1CCCN(C(=O)c2ccc(-c3csc(-c4ccnc(C(C)(C)C)c4)c3)c(Cl)c2)C1 (stereo not shown) [Compound 70, tert-butyl N-(1-{4-[5-(2-tert-butylpyridin-4-yl)thiophen-3-yl]-3-chlorobenzoyl}piperidin-3-yl)-N-methylcarbamate]	> 10 µM	0.08 µM	–
